# From US20140378551A1, “Composition for the Prophylactic Treatment of Neuropathic Pain” (Universite d'Auvergne, priority 2011, published 2014)
# System: neuropathic pain induced by spinal nerve ligation among rats
# Test: Paw pressure test (Randall & Selitto): mechanical hyperalgesia, spinal nerve ligation model
# Assay type: in vivo, rat
# Method: The effects of the prolonged and preventive administration of memantine were first of all studied among rats. The model used was that of the ligation of the spinal nerve L5 (herein after called SNL for spinal nerve ligation) among rats. The emergence of neuropathic pain is assessed according to the following criteria: • the behavior of the rat following the spinal nerve ligation (SNL), • cognition, and • molecular events, including the expression of phosphorylated tyrosine 1472 of the NR2B sub-unit of the NMDA receptor at the spinal level.
# The study was based on the comparison of the two main groups of animals. The first group was a control group. The rats of the control group, designated as “Sham” in the graphs, underwent no operation. They are used to assess the role of the injected substances on the individual, without there being any emergence of neuropathic pain.
# Two sub-groups were set up in this group: • one sub-group treated with the vehicle which is a saline solution of NaCl 0.9% by mass, in a dose of 1 mL/kg/rat/day, by intraperitoneal injection; and • one sub-group treated with memantine in a dose of 20 mg/kg/rat/day, by intraperitoneal injection.
# The second group of animals comprises rats having to undergo to spinal nerve ligation and therefore likely to develop neuropathic pain. This group is referred to in the graphs by the term SNL. As in the control group, this group is divided into two sub-groups: • one sub-group treated with the vehicle, which is a saline solution of NaCl 0.9% by mass, in a dose of 1 mL/kg/rat/day, by intraperitoneal injection; and • one sub-group treated by memantine in a dose of 20 mg/kg/rat/day, by intraperitoneal injection. […]
# 7. Seven to 14 days after the surgery, the neuropathic, hyperalgesic or allodynic rats are selected according to their response to nociceptive and non-nociceptive stimulation assessed through appropriate tests (see paragraph 6.1.2). […]
structure (smiles),measurement,setting,value
"CC12CC3CC(C)(C1)CC(N)(C3)C2 [memantine, 1-amino-3,5-dimethyl-adamantane]",vocalization threshold (mechanical hyperalgesia),"SNL rats, 20 mg/kg/rat/day i.p., four days before and three days after the operation",vocalization threshold very close to that of non-operated rats
same,vocalization threshold (mechanical hyperalgesia),"SNL rats, 20 mg/kg/rat/day i.p., post-operative injection only (three days after operation)",not enough to restore a normal vocalization threshold
same,vocalization threshold (mechanical hyperalgesia),"non-operated (Sham) rats, 20 mg/kg/rat/day intraperitoneal, versus vehicle",no influence whatsoever on the behavior of non-operated rats
